Laboratory results published in US20090312316A1, “NOVEL COMPOUNDS” (priority 2006, published 2009).
pIC50: −log10 of the molar value. Values after ≈ are worked out from the molar mass of the structure shown.

How the values were obtained:
[1] = test system: panel of 12 human tumour cell lines; assay: monolayer proliferation assay (modified propidium iodide assay) in a panel of 12 human tumour cell lines; assay type: cell-based
Protocol: In vitro evaluation of compounds for anticancer activity in a panel of 12 human tumour cell lines in a monolayer proliferation assay was carried out at the Oncotest Testing Facility, Institute for Experimental Oncology, Oncotest GmbH, Freiburg.
The Oncotest cell lines were established from human tumor xenografts as described by Roth et al., (1999). The origin of the donor xenografts was described by Fiebig et al., (1999). Other cell lines were either obtained from the NCI (H460, SF-268, OVCAR-3, DU145, MDA-MB-231, MDA-MB-468) or purchased from DSMZ, Braunschweig, Germany (LNCAP).
All cell lines, unless otherwise specified, were grown at 37° C. in a humidified atmosphere (95% air, 5% CO2) in a ‘ready-mix’ medium containing RPMI 1640 medium, 10% fetal calf serum, and 0.1 mg/mL gentamicin (PAA, Cölbe, Germany).
A modified propidium iodide assay was used to assess the effects of the test compound(s) on the growth of human tumour cell lines (Dengler et al., (1995)).
Briefly, cells were harvested from exponential phase cultures by trypsinization, counted and plated in 96 well flat-bottomed microtitre plates at a cell density dependent on the cell line (5-10.000 viable cells/well). After 24 h recovery to allow the cells to resume exponential growth, 0.010 mL of culture medium (6 control wells per plate) or culture medium containing macbecin were added to the wells. Each concentration was plated in triplicate. Compounds were applied in two concentrations (0.001 mM and 0.01 mM). Following 4 days of continuous exposure, cell culture medium with or without test compound was replaced by 0.2 mL of an aqueous propidium iodide (PI) solution (7 mg/L). To measure the proportion of living cells, cells were permeabilized by freezing the plates. After thawing the plates, fluorescence was measured using the Cytofluor 4000 microplate reader (excitation 530 nm, emission 620 nm), giving a direct relationship to the total number of viable cells.
The mean growth inhibition across the 12 cell-line panel was expressed as treated/control×100 (% T/C).
In vitro evaluation of the test compounds for anticancer activity in a panel of human tumour cell lines in a monolayer proliferation assay was carried out as described in the general methods using a modified propidium iodide assay. This screen may be used as a model for the toxic effect of compounds in inhibiting general cell growth.

[2] = test system: CAM vasculature; assay: Chick chorioallantoic membrane (CAM) assay of anti-angiogenic activity; assay type: in vivo
Protocol: Fresh fertile eggs were be incubated for 3 days in a standard egg incubator at 37° C. for 3 days. On Day 3, eggs were cracked under sterile conditions and embryos were placed into 20×100 mm plastic plates and cultivated at 37° C. in an embryo incubator with a water reservoir on the bottom shelf. Air was continuously bubbled into the water reservoir using a small pump so that the humidity in the incubator was kept constant. […] Embryos were returned to the incubator after addition of test material. Control embryos received 10 μL of vehicle alone. […] The blood vessel density was semi-quantitatively measured using an angiogenesis scoring system, in that exponential numbers 1 to 32 were used to indicate number of blood vessels present at the treatment sites on the CAM. Number 32 represented the highest density and 0 represented no angiogenesis. The percent of inhibition at each dosing site was calculated using the score recorded for that site divided by the mean score obtained from the appropriate control samples for each individual experiment. The percent of inhibition for each dose of a given compound was calculated by pooling all results obtained for that dose.

[3] = test system: capillary tube formation; settings: Wakabayashi et al., 1997, cited from earlier work
[4] = test system: human umbilical vein endothelial cells (HUVEC); settings: cited from earlier work
[5] = test system: protein synthesis in the cultured rat cells; settings: cited from earlier work
[6] = molecular target: cyclin-dependant kinase Cdc28/Cln2 (Saccharomyces cerevisiae, UniProt P00546); settings: Tsuchiya et al., 2001; cited from earlier work
cyclin-dependant kinase Cdc28/Cln2, sequence (P00546 whole entry): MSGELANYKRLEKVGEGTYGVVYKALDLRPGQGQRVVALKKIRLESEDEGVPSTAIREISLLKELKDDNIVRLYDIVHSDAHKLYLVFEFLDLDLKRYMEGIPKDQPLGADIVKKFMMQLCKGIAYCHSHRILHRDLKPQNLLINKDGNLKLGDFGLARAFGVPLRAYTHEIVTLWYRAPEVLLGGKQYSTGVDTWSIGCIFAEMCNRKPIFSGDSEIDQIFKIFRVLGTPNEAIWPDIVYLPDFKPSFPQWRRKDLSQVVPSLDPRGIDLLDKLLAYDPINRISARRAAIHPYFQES
cyclin-dependant kinase Cdc28/Cln2, sequence (P20438 whole entry partner): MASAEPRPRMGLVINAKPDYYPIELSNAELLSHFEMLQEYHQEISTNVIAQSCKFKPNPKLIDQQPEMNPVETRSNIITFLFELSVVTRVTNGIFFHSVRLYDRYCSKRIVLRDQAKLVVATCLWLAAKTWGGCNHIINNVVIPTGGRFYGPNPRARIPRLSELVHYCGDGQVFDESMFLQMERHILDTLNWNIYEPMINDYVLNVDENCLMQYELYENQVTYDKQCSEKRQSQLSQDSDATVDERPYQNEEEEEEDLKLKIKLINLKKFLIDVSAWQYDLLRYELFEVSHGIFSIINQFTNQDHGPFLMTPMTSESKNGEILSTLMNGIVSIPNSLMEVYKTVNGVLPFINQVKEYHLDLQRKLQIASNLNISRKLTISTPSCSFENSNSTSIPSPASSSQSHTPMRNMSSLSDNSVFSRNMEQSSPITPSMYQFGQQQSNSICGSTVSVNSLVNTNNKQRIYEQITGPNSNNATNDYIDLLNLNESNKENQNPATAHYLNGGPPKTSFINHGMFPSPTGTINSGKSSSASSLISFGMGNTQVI

[7] = test system: VEGF-induced angiogenesis (WiDr cells); settings: 1.8 mg/kg by intraperitoneal injection; Funahashi et al., 1999; cited from earlier work
[8] = test system: B16-BL6 melanoma cells; settings: same dosage (1.8 mg/kg); cited from earlier work
[9] = test system: Lewis lung adenocarcinoma; settings: WO 01/09113; cited from earlier work

With `C[C@@H]1C[C@H](C)C[C@H](C)[C@@H](O)CC(=O)O[C@H]([C@@H]2CCC[C@H]2C(=O)O)C/C=C/C=C(/C#N)[C@H](O)[C@@H](C)C1` [Compound 1, Borrelidin] the “Mean % T/C at 1 μM” value ([1]; 1 μM, mean growth across 12 cell-line panel, treated/control x 100, 4 days exposure) was 7 % T/C, the “Mean % T/C at 10 μM” value ([1]; 10 μM, mean growth across 12 cell-line panel, treated/control x 100, 4 days exposure) was 6 % T/C and the inhibition at 1 µM ([1]; Homo sapiens, 1 uM, 100 minus mean %T/C at 1 uM of Table III, read-out: Mean percentage Inhibition of cancer cell lines at 1 uM) was 93%. For the same compound, the “Mean percentage inhibition of CAM vasculature at 25 ng/CAM” value ([2]; 25 ng/CAM) was 62%, the “Ratio of inhibition of CAM vasculature at 25 ng/CAM to in vitro cancer cell inhibition at 1 uM” value ([2]; 25 ng/CAM versus 1 uM in cancer cell panel) was 0.6 and the “Mean blood vessel density score” value ([2]; angiogenesis score up to 32 (highest density), 0 = no angiogenesis, mean of ten experiments) was 6.4. The “IC50 inhibition of capillary tube formation” value [3] was 0.0004 µg/mL, the pIC50 ([3]; read-out: IC50 inhibition of capillary tube formation) was 9.10 and the “IC50 anti-proliferative activity towards HUVEC” value ([4]; cell growth assay, Wakabayashi et al., 1997) was 0.006 µg/mL (≈ 0.0123 µM). The “HUVEC anti-proliferative IC50 weaker than anti-angiogenesis activity” value ([4]; measured in the same medium) was 15 fold, the “anti-angiogenesis IC50 lower than IC50 for inhibition of protein synthesis” value ([5]; 0.4 ng/mL versus 20 ng/mL) was 50 fold and the “IC50 inhibition of protein synthesis” value ([5]; cultured rat cells) was 0.02 µg/mL. For the same compound, the “IC50 Cdc28/Cln2” value [6] was 12 µg/mL (≈ 24.5 µM), the “increment of vascular volume induced by WiDr cells” value [7] was “significantly reduce” and the “inhibition of the formation of spontaneous lung metastases” value [8] was “effective”. The “propagation of metastatic nodules after removal of the primary tumour” value [9] was “weakly inhibited”.
